Assay results as given in ChEMBL document CHEMBL3507680, “University of Dundee, Gates Library screen for HepG2 cell viability”.

Assay: Human HepG2 cell viability assay in 384 well format
Assay type: toxicity, cell-based
Set-up: dose 125 nL, time 70.5 hour; concentration not given beside the values
Conditions: HepG2 cells, read-out: Inhibition

| Compound | cytotoxicity at 70.5 h [%] |
| --- | --- |
| COCCN1CCN(C(=O)c2ccc(C)cc2F)[C@H]2CS(=O)(=O)C[C@H]21 | -8.53 |
| CCCn1nc(C(=O)NC2(c3ccc(Cl)cc3)CCCC2)ccc1=O | -7.76 |
| CCCSc1ncc(-c2nccn2CCO)cn1 | -12.8 |
| O=C(Cn1cc(C2CC2)nn1)N(Cc1ccco1)CC1CCCO1 (centres undefined) | 10.2 |
| CNC(=O)CS(=O)(=O)NC1CCC(C)CC1 (centres undefined) | -15.8 |
| COc1cc(N2C[C@H]3CN(CC(=O)N(C)C)C(=O)[C@H]3C2)ncn1 | 28.2 |
| c1ccc2oc(N3CCCCC3Cn3cncn3)nc2c1 (centres undefined) | 25.6 |
| COCC1CN(S(=O)(=O)N(C)C)Cc2ncn(CC3CC3)c21 (centres undefined) | 2.72 |
| CC1c2ncc(COc3cccnc3)n2CCN1C(=O)C1=CCCC1 (centres undefined) | -9.18 |
| CCNC(=O)[C@@H]1C[C@H](N)CN1Cc1ccc2cccc(Cl)c2n1 | -7.99 |
| Cc1ccc2c(c1)c(CNC(=O)C1CCCN(CC(N)=O)C1)nn2C (centres undefined) | -10.2 |
| Cc1nccn1CC1CCCN1S(=O)(=O)Cc1cccc(C#N)c1 (centres undefined) | 29.1 |
| Cc1nc(C)c(C(=O)OCCNc2ncccc2C#N)s1 | -11.1 |
| CC(=O)N1CCc2c(nc(N(C)C)nc2NCCCn2ccnc2C)C1 | -4.2 |
| COc1ccc(-n2cc(CCO)cn2)cc1C(N)=O | -14.7 |
| N#CC1(c2ccccc2)CCN(C(=O)CN2C(=O)CCNC2=O)CC1 | -0.486 |
| O=C(CCC(=O)N1CCC(Cc2ccc(CO)cc2)C1)c1ccccc1 (centres undefined) | -13.8 |
| Cc1noc(CCCC(=O)NCC(c2ccco2)N2CCCC2)n1 (centres undefined) | -14.9 |
| CCOCc1ccccc1NC(=O)NCC(C)(O)c1cccs1 (centres undefined) | -1.02 |
| O=C(NC1CC1)N1CCCC2(CCNC2=O)C1 (centres undefined) | -3.68 |
| CCOC(=O)[C@]12CCCN(Cc3nccs3)C[C@H]1CN(CC(C)C)C2 | -3.1 |
| CCN(Cc1ccc(-c2ccccn2)cc1)C1CCS(=O)(=O)C1 (centres undefined) | -1.78 |
| CCn1nccc1C(=O)N1CCCCC1CCc1ccc(O)cc1 (centres undefined) | 11 |

| Compound | cytotoxicity at 70.5 h [%] |
| --- | --- |
| CC(C)n1cc(N2CC(C(=O)N3CCCC3)CC2=O)cn1 (centres undefined) | -6.71 |
| CC(C)Oc1ccc(C(=O)N2CCCCC2Cn2cccn2)cn1 (centres undefined) | -4.78 |
| O=C(CCn1cncn1)NCC(c1ccco1)N1CCCCC1 (centres undefined) | 7 |
| O=C1NC2(CCN(Cc3nccs3)CC2)CC1c1ccncc1 (centres undefined) | -0.916 |
| O=C(O)[C@H]1C[C@H](C(=O)NC2CC2)CN(Cc2ccc(-c3cc[nH]n3)s2)C1 | 11.9 |
| CNc1ncc(CN2CCC(c3nnsc3S(C)(=O)=O)CC2)cn1 | -7.26 |
| Cc1noc(C)c1NS(=O)(=O)c1cc(Cl)c(Cl)c(C(=O)O)c1 | -9.2 |
| N#CC1(NC(=O)CNCCn2cccn2)CCCCC1 | -1.06 |
| CSc1cc2c(cc1NC(=O)NCC(=O)N(C)C)OCCO2 | 0.952 |
| O=C1N(c2cncnc2)CCC12CCCN(Cc1cccnc1)C2 (centres undefined) | -3.72 |
| Cn1cc(CN(C/C=C/c2ccccc2)C2CC2)cn1 | -8.38 |
| CCC(C)(NCC(=O)NC(C)C)c1nccs1 (centres undefined) | -3.03 |
| COc1cccn(CC(=O)N(C)CCC2CCOCC2)c1=O | 25 |
| COCCOc1ccccc1C(=O)NCCN(C)C(C)C | 16.8 |
| CCOc1cccc2c1OCC(C(=O)NS(=O)(=O)c1cccs1)=C2 | -9.43 |
| Cn1nc(CN2CCCC2)c2c1CN(C(=O)c1ccc[nH]1)CC2 | 11.9 |
| O=C(O)C(c1ccc2c(c1)OCCO2)N1CCC(N2CCSCC2)CC1 (centres undefined) | -1.86 |
| Cc1ccn(-c2cncc(C(N)=O)c2)n1 | -14.4 |
| CC(NC(=O)NCc1ccc(Cl)cc1)c1ccccn1 (centres undefined) | -10.7 |
| O=C(C1SCCc2sccc21)N1CCCCC1 (centres undefined) | -6.95 |
| COc1ccc(CNC2CCc3ncnn3C2)cc1OCCCC#N (centres undefined) | -9.41 |
| CCCN1CCC(c2nc3ccc(-c4cccc(F)c4)cn3n2)CC1 | -7.17 |
| CCN1Cc2c(C(=O)NC(C)C)ncn2-c2ccccc2S1(=O)=O | -16.2 |

| Compound | cytotoxicity at 70.5 h [%] |
| --- | --- |
| CN(CCNS(C)(=O)=O)C(=O)c1ccc(Cl)c(Cl)c1 | -6.01 |
| Cc1nc(NS(=O)(=O)c2ccc(F)c(Br)c2)no1 | -2.96 |
| Cn1nnc2c1CCN(CC1CC1)C2COCc1ccccc1 (centres undefined) | -6.64 |
| CCC(NC(=O)c1ccc(COC)o1)c1nc(C(F)(F)F)cs1 (centres undefined) | 4.55 |
| COc1ccc(CNC(=O)CN2CCc3ccccc32)cc1 | 27 |
| O=C(CCCn1cncn1)N1CCC2(CC1)[C@H](O)C[C@@H]2OCCO | -6.43 |
| CCOc1cc(CNCCCn2ccnc2)cc(Cl)c1OC | 3.61 |
| O=C(c1ccnnc1)N1CC[C@H](OCC2CC2)[C@@H]1Cc1ccncc1 | -1.15 |
| COc1ccc2c(c1)C1(CCN(Cc3ccncc3)CC1)N(C)CC2 | -10.8 |
| CCNC(=O)N1CCC(c2ccccc2)C1 (centres undefined) | 2.66 |
| COC(=O)c1ccc(C2SC(C)=Nc3c2c(=O)[nH]n3C2CCCC2)cc1 (centres undefined) | -14.5 |
| Cc1cccc(C(=O)N2CCO[C@H]3[C@H](OCCN(C)C)CC[C@@H]32)n1 | -3.76 |
| Cc1n[nH]c(C2CN(Cc3csc(C4CCCC4)n3)CCO2)n1 (centres undefined) | -6.59 |
| Cn1cc(CN2CCC3(CCC(C(=O)NCC4CC4)C3)CC2)cn1 (centres undefined) | -9.54 |
| NCCn1nc(C2CCN(Cc3ccccc3Cl)C2)c2nccnc21 (centres undefined) | -4.18 |
| O=C(c1ccc[nH]1)N1CCCn2c(CNC3CCC3)nnc2C1 | -4.17 |
| Cc1ccc(N2CCCN(C(=O)CCC3CCCO3)CC2)nn1 (centres undefined) | 4.12 |
| O=C1OCC(CO)N1Cc1cccc(Cl)c1F (centres undefined) | 26.5 |
| CCO[C@@H]1CC[C@H]2[C@H]1OCCN2CC1CCC1 | -104 |
| CCCNC(=O)Cn1c(C)nn(C(C)(C)C)c1=O | 9.3 |
| Cc1ccc(C(=O)N2CC[C@H]3[C@@H]2CCC(=O)N3c2cccnc2)o1 | -13.5 |
| CCC(C)(C)CC(=O)NC(C)C(=O)Nc1ccc(-n2cncn2)cc1 (centres undefined) | -81.3 |
| Cc1noc(C)c1CC(=O)Nc1ccn(CC(N)=O)n1 | -5.49 |

| Compound | cytotoxicity at 70.5 h [%] |
| --- | --- |
| COc1cccc(C(C)N2CCN(S(=O)(=O)c3ccccc3)CC2)c1 (centres undefined) | -2.4 |
| CCCn1ncc(-c2ccnc(NC3CCSC3)n2)c1C (centres undefined) | -12.7 |
| COc1c(CNC(c2nccn2C)C(C)C)c(C)nn1C (centres undefined) | -6.48 |
| Cc1c(Cl)c(C(=O)NCc2ccc(F)cc2)nn1C | -5.73 |
| Cc1cnc2c(S(=O)(=O)NC(=O)C(C)OCC3CC3)cccc2c1 (centres undefined) | -0.0884 |
| Cc1ccc(N2CCCc3sc(C(=O)NCCO)nc32)nn1 | -1.7 |
| CN(C)C(=O)C1CCN(Cc2csc(C(C)(C)C)n2)CC1 | 18 |
| CNCC[C@H]1CC(C)(C)Oc2ccc(OC)cc21 | -0.183 |
| CCn1nc(C)cc1C(=O)N1CCOc2cc(C)ccc21 | -7.11 |
| Cc1cc2nc(C3CCCCC3)c(-c3ccnc(NCCO)n3)cn2n1 | -5.35 |
| CCOCCCn1c(NC(=O)c2cnc(C)s2)nc2ccccc21 | 4.48 |
| COC(=O)NCC(=O)N(C)Cc1csc(-c2cccs2)n1 | 3.35 |
| CCCn1cc(NC(=O)c2ccc(S(=O)(=O)CC)cc2)ccc1=O | 22.4 |
| Cc1noc(C2(C)CCCN(C(=O)c3cnn(C)c3)C2)n1 (centres undefined) | -7.96 |
| Cc1ccc(NC2(C(=O)N3CCn4cncc4C3)CCCCC2)cc1C | -12.1 |
| COc1cccc(OC2CN(C(=O)c3c(C)noc3C)C2)c1 | -9.88 |
| CN1CCc2nc(N(C)C)nc(N3CCC(O)CC3)c2C1 | -9.46 |
| O=C(c1ccc(O)cc1)N1C[C@@H]2CCN(c3cccnc3)C[C@@H]2C1 | 22.7 |
| CC(C)(C)NCc1nn(Cc2ccccc2)nc1-c1ccccc1 | 5.21 |
| O=C(NCC1CC1)[C@@H]1CCO[C@@H]2CCN(Cc3ccsc3)C[C@H]21 | -10.2 |
| Cc1cc(-c2ccccc2C(=O)O)nc(C2CCCN2S(C)(=O)=O)n1 (centres undefined) | -1.81 |
| COCc1noc(Cn2ccc3ccccc3c2=O)n1 | -5.61 |
| COc1ccc(-n2cnc(Cl)c2CO)cc1 | -2.44 |

| Compound | cytotoxicity at 70.5 h [%] |
| --- | --- |
| COc1cc(OC)c2c(=O)oc(CC(O)CC(C)=O)cc2c1 (centres undefined) | 9.76 |
| O=S(=O)(Cc1ccccc1F)NCCCN1CCCCC1 | -1.2 |
| CCCSCC(=O)N1C[C@@H]2CC[C@H](C1)N(Cc1ccccn1)C2=O | -5.83 |
| c1ccc(CO[C@@H]2CN(Cc3nccs3)[C@@H]3COC[C@@H]32)nc1 | -7.21 |
| COC(=O)c1cccc(NS(=O)(=O)c2cnc(NC(C)=O)s2)c1 | -1.8 |
| CCOc1cc(/C=C/c2ncc(C(=O)O)s2)ccc1O | 0.103 |
| CN(Cc1cc(C(C)(C)C)n[nH]1)C(=O)c1ccccc1C1CCNC1 (centres undefined) | -13.4 |
| O=C1NC2(CCN(Cc3cccs3)CC2)CC1c1ccncc1 (centres undefined) | 10.2 |
| Cc1oc(C(=O)Nc2cccc(Cl)c2C)cc1S(N)(=O)=O | 0.43 |
| CN(Cc1cc2n(n1)CCCN(C(=O)N1CCCC1)C2)Cc1nccs1 | 24.4 |
| Cc1cnn(CCCOc2ccc3c(c2)OCO3)c1 | -0.603 |
| Cc1cccc(CN2C(=O)CCC23CCN(Cc2cccn2C)CC3)n1 | -3.65 |
| Fc1ccc(-c2nnc(CN3CCn4c(nnc4C4CC4)C3)o2)cc1 | -5.47 |
| CCc1noc(-c2cccc(OCC(=O)NC(C)C)c2)n1 | -7.23 |
| CC(C)c1csc(C2CCCN(C(=O)c3ccc(=O)n(C)c3)C2)n1 (centres undefined) | -0.564 |
| Cc1csc(C2CCCCN2C(=O)c2cc(C(C)C)[nH]n2)n1 (centres undefined) | 1.99 |
| CC(C)c1ccc(CC2(C)Cc3cc(CC(=O)O)ccc3O2)cc1 (centres undefined) | 17.5 |
| COc1ccccc1N1CCC(CNS(=O)(=O)c2cccs2)C1 (centres undefined) | -6.04 |
| CCCc1nc(CN2CCN(C(C)c3nc(C4CC4)no3)CC2)no1 (centres undefined) | -5.86 |
| COc1cccc(CCNCc2c(C)nn(C)c2N(C)C)c1 | -4.91 |
| Cc1cc(NS(=O)(=O)c2cccs2)ccc1-n1cccc1C(=O)O | -1.78 |
| Cc1nc[nH]c1CN1CCN(C(=O)CCC(F)(F)F)[C@H]2CS(=O)(=O)C[C@H]21 | -9.24 |
